Consider 20 compounds from US6410547B1, “Phenylpyridine derivatives useful as phosphodiesterase inhibitors” (Novartis AG, priority 1996, dated 2002).

Structures can show the parent of a compound that is named as a salt. Some results are limits rather than exact numbers.

The melting point is the temperature of the solid-liquid transition.

The compound `COc1ccc(-c2ccncc2)cc1-c1cccc(Cl)c1` (as salt: hydrochloride) [Example 7, 4-[2-(Methoxy)-3′-(chloro)biphenyl-5-yl]pyridine] showed a melting point of 156 to 210 °C. In turn, `COc1ccc(-c2ccncc2)cc1-c1cccc(Oc2ccccc2)c1` (as salt: hydrochloride) [Example 9, 4-[2-(Methoxy)-3′-(phenoxy)biphenyl-5-yl]pyridine] showed a melting point of 184 to 204 °C. The value for `COc1ccc(-c2ccncc2)cc1-c1ccc(Oc2ccccc2)cc1` (as salt: hydrochloride) [Example 10, 4-[2-(Methoxy)4′-(phenoxy)biphenyl-5-yl]pyridine] was 173 to 218 °C. The figure for `COc1ccc(-c2ccncc2)cc1-c1ccc(F)c(Cl)c1` (as salt: hydrochloride) [Example 11, 4-[2-(Methoxy)-3′-(chloro)4′-(fluoro)biphenyl-5-yl]pyridine] is 115 °C; for `COc1ccc(-c2ccncc2)cc1-c1ccc2nonc2c1` [Example 5, 4-[4-Methoxy-3-(5-benzofurazanyl)phenyl]pyridine] it is 187 to 192 °C; for `CCOC(=O)c1ccc(-c2ccc(OC)c(-c3cccc([N+](=O)[O-])c3)c2)cc1` [Example 13, 4′-Methoxy-3′-(3-nitrophenyl)-[1,1′-biphenyl]-4-carboxylic acid, ethyl ester] it is 106 to 108 °C. The value for `CCOC(=O)c1cccc(-c2ccc(OC)c(-c3cccc([N+](=O)[O-])c3)c2)c1` [Example 14, 4′-Methoxy-3′-(3-nitrophenyl)-[1,1′-biphenyl]-3-carboxylic acid, ethyl ester] was 87 to 89 °C; that for `CCOC(=O)c1ccc(-c2ccc(OC)c(-c3cccc([N+](=O)[O-])c3)c2)cc1C` [Example 15, 4′-Methoxy-3-methyl-3′-(3-nitrophenyl)-[1,1′-biphenyl]-4-carboxylic acid, ethyl ester] was 88 to 90 °C. The compound `CCOC(=O)c1ccc(-c2ccc(OC)c(-c3ccc4nonc4c3)c2)cc1` [Example 16, 3′-(5-Benzofurazanyl)-4′-methoxy-[1,1′-biphenyl]-4-carboxylic acid, ethyl ester] displayed a melting point of 166 to 168 °C. In turn, `COc1ccc(-c2ccc(C(=O)OCC(C)(C)C)cc2)cc1-c1ccc2nonc2c1` [Example 17, 3′-(5-Benzofurazanyl)-4′-methoxy-[1,1′-biphenyl]-4-carboxylic acid, 2,2-dimethylpropyl ester] gave a melting point of 131 to 136 °C. The value for `COc1ccc(-c2cccc(C(=O)O)c2)cc1-c1cccc([N+](=O)[O-])c1` [Example 19, 4′-Methoxy-3′-(3-nitrophenyl)-[1,1′-biphenyl]-3-carboxylic acid] was 223 to 228 °C; that for `COc1ccc(-c2ccc(C(=O)O)c(C)c2)cc1-c1cccc([N+](=O)[O-])c1` [Example 20, 4′-Methoxy-3-methyl-3′-(3-nitrophenyl)-[1,1′-biphenyl]-4-carboxylic acid] was 278 to 281 °C.

Take `COc1ccc(-c2ccc(C(=O)O)cc2)cc1-c1ccc2nonc2c1` [Example 21, 3′-(5-Benzofurazanyl)-4′-methoxy-[1,1′-biphenyl]-4-carboxylic acid]: the melting point is > 300 °C. In the case of `COc1ccc(-c2ccc(C(=O)O)cc2)cc1-c1cccc(Cl)c1` [Example 22, 4′-Methoxy-3′-(3-chlorophenyl)-[1,1′-biphenyl]-4-carboxylic acid], the melting point is 250 to 252 °C. The value for `COc1ccc(-c2ccc(C(=O)O)cc2)cc1-c1cccc(C#N)c1` [Example 23, 4′-Methoxy-3′-(3-cyanophenyl)-[1,1′-biphenyl]-4-carboxylic acid] was 280 to 285 °C.

`COc1ccc(-c2ccc(C(N)=O)cc2)cc1-c1cccc([N+](=O)[O-])c1` [Example 24, 4′-Methoxy-3′-(3-nitrophenyl)-[1,1′-biphenyl]-4-carboxamide] gave a melting point of 201 to 205 °C. `COc1ccc(-c2cccc(C(N)=O)c2)cc1-c1cccc([N+](=O)[O-])c1` [Example 25, 4′-Methoxy-3′-(3-nitrophenyl)-[1,1′-biphenyl]-3-carboxamide] yielded a melting point of 118 to 120 °C. The compound `COc1ccc(-c2ccc(C(N)=O)c(C)c2)cc1-c1cccc([N+](=O)[O-])c1` [Example 26, 4′-Methoxy-3-methyl-3′-(3-nitrophenyl)-[1,1′-biphenyl]-4-carboxamide] registered a melting point of 179 to 184 °C. Take `CNC(=O)c1ccc(-c2ccc(OC)c(-c3cccc([N+](=O)[O-])c3)c2)cc1` [Example 27, N-Methyl-4′-methoxy-3′-(3-nitrophenyl)-[1,1′-biphenyl]-4-carboxamide]: the melting point is 171 to 172 °C. The value for `COc1ccc(-c2ccc3nccn3c2)cc1-c1ccc2nonc2c1` [Example 28, 6-[4-Methoxy-3-(5-benzofurazanyl)phenyl]imidazo[1,2-a]pyridine] was 190 to 196 °C.
